Here are results for four compounds from US20100197650A1, “COMPOSITIONS AND METHODS OF TREATMENT COMPRISING CEFTAROLINE” (FOREST LABORATORIES HOLDINGS LTD., priority 2008, published 2010).

Experiment [1] deals with Staphylococcus aureus. Put plainly: MIC, broth microdilution (Example 1). It counts as cell-based. The note with it: Staphylococcus aureus, read-out: MIC. The protocol: (§1) Stock solutions of all antibacterial agents were prepared at 80-fold (80×) the final target concentration in the appropriate solvent and the solution was allowed to stand for 60 minutes. All antibacterial agents were in solution under these conditions. The final drug concentrations in the FIC assay plates were set to bracket the MIC value of each agent for each test organism, unless the strain was totally resistant to the test agent.
(§2) The test organisms were originally received from clinical sources, or from the American Type Culture Collection. Upon receipt, the isolates were streaked onto the appropriate growth medium: Chocolate Agar for H. influenzae, Tryptic Soy Agar II (Becton Dickinson, Sparks, Md.) supplemented with 5% defibrinated sheep blood for streptococci, and unsupplemented Tryptic Soy Agar II for all other organisms. Colonies were harvested from these plates and a cell suspension was prepared in Tryptic Soy Broth (Becton Dickinson) containing cryoprotectant. Aliquots were then frozen at −80° C. On the day prior to assay, the frozen seeds of the organisms to be tested in that session were thawed and streaked for isolation onto the appropriate agar medium plates and incubated overnight at 35° C.
(§3) The test medium for H. influenzae was Haemophilus Test Medium. Streptococci were tested in Mueller Hinton II Broth (Becton Dickinson; Lot 6235472) supplemented with 2% lysed horse blood (Cleveland Scientific, Bath, Ohio; Lot H88621). All other organisms were tested in Mueller Hinton II Broth (Becton Dickinson, Lot 6235472). The broth was prepared at 1.05× normal weight/volume to offset the 5% volume of the drugs in the final test plates.
(§4) In order to select the proper test concentrations for each drug combination, minimal inhibitory concentration (MIC) values were first determined using the broth microdilution method previously described (Clinical and Laboratory Standards Institute. Methods for Dilution Antimicrobial Susceptibility Tests for Bacteria That Grow Aerobically; Approved Standard—Seventh Edition. Clinical and Laboratory Standards Institute document M7-A7 [ISBN 1-56238-587-9]. Clinical and Laboratory Standards Institute, 940 West Valley Road, Suite 1400, Wayne, Pa. 19087-1898 USA, 2006).
(§5) The wells of standard 96-well microdilution plates (Falcon 3918) were filled with 150 μL of 100% DMSO using the Multidrop 384. These plates were used to prepare the drug “mother plates” which provided the serial drug dilutions for the drug combination plates. The Biomek 2000 was used to transfer 150 μl of each stock solution (80×) from the wells in Column 1 of a deep well plate to the corresponding wells in Column 1 of the mother plate and to make seven 2-fold serial dilutions. Two mother plates, one for each drug, were combined to form a “checkerboard” pattern by transfer of equal volumes (using a multi-channel pipette) to the drug combination plate. Row H and Column 8 each contained serial dilutions of one of the agents alone for determination of the MIC.
(§6) Plates were stacked 3 high, covered with a lid on the top plate, placed in plastic bags, and incubated at 35° C. for approximately 20 hours. Following incubation, the microplates were removed from the incubator and viewed from the bottom using a ScienceWare plate viewer. Prepared reading sheets were marked for the MIC of drug 1 (row H), the MIC of drug 2 (column 8) and the wells of the growth-no growth interface.
On the technique in general: In broth dilution the organism is exposed to a series of concentrations in liquid medium.

Experiment [2] deals with Haemophilus influenzae. Put plainly: MIC, broth microdilution (Example 1). It counts as cell-based. The note with it: Haemophilus influenzae, read-out: MIC. The protocol: as §1, §2, §3, §4, §5, §6
For experiment [3], the system named is Streptococcus pneumoniae. Put plainly: MIC, broth microdilution (Example 1). The format is cell-based. The protocol:
as §1, §2, §3, §4, §5, §6

The subject of experiment [4] is Enterococcus faecalis. Put plainly: MIC, broth microdilution (Example 1). The format is cell-based. The note with it: Enterococcus faecalis, read-out: MIC. The protocol: as §1, §2, §3, §4, §5, §6
For experiment [5], the system named is Streptococcus pyogenes. Put plainly: MIC, broth microdilution (Example 1). The note with it: Streptococcus pyogenes, read-out: MIC. It counts as cell-based. The protocol: as §1, §2, §3, §4, §5, §6
In experiment [6] the test system is HA-MRSA. Put plainly: Susceptibility testing MIC/MBC, broth microdilution (Example 3). The format is cell-based, Staphylococcus aureus. The note with it: 200 HA-MRSA isolates. The procedure:
Two hundred clinical HA-MRSA isolates, harboring the SCCmecIV type, were evaluated for susceptibility testing. […] Four strains, including 1 hVISA and 1 VISA, characterized by population analysis profile and Macro Etest were selected for time-kill analysis.
Trypose soy agar (TSA; Difco, Detroit, Mich.) was used for colony counting.
Minimum inhibitory concentrations (MIC) and minimum bactericidal concentrations (MBC) were determined by broth microdilution for all antimicrobials, according to the Clinical and Laboratory Standards Institute (CLSI) guidelines (Clinical and Laboratory Standards Institute. 2006. Methods for Dilution Antimicrobial Susceptibility Tests for Bacteria That Grow Aerobically; Approved Standard. 7th ed. Wayne, Pa.: CLSI). MBC values were determined by plating of aliquots of 5 μL from clear wells onto TSA. All susceptibility testing were performed in duplicate.

The mark [7] stands for this setting: ATCC29213, S. aureus 0100 (ATCC 29213), FIC control.

Converted amounts (≈) assume the structure as drawn. Like-named read-outs stand apart in the source and are kept apart here.

Consider `O=C(O)[C@H]1/C(=C/CO)O[C@@H]2CC(=O)N21` [Clavulanate], for which the MIC in experiment [1] (setting [7]) was greater than 16 µg/mL.

For the compound `CC[C@H]1OC(=O)[C@H](C)[C@@H](O[C@H]2C[C@@](C)(OC)[C@@H](O)[C@H](C)O2)[C@H](C)[C@@H](O[C@@H]2O[C@H](C)C[C@H](N(C)C)[C@H]2O)[C@](C)(O)C[C@@H](C)CN(C)[C@H](C)[C@@H](O)[C@]1(C)O` [Azithromycin], the MIC in experiment [2] (H. influenzae 1224) was 1 µg/mL; in experiment [2] (H. influenzae 2797 (BLNAR)), 1 µg/mL; in experiment [2] (H. influenzae 2798 (BLNAR)) it was 2 µg/mL; in experiment [2] (H. influenzae 2799 (BLNAR)) it was 0.25 µg/mL; in experiment [3] (S. pneumoniae 0877 (PRSP)), >32^a^ μg/mL; in experiment [3] (Streptococcus pneumoniae, PRSP, S. pneumoniae 0876 (PRSP), read-out: MIC) it was 2 µg/mL. The MIC is greater than 32 µg/mL in experiment [3] (Streptococcus pneumoniae, PRSP, S. pneumoniae 0877 (PRSP), read-out: MIC); 0.06 µg/mL in experiment [3] (Streptococcus pneumoniae, S. pneumoniae 0866 (PSSP), read-out: MIC); 0.06 µg/mL in experiment [3] (Streptococcus pneumoniae, S. pneumoniae 0869 (PSSP), read-out: MIC).

For `O=C(N[C@H](CO)[C@H](O)c1ccc([N+](=O)[O-])cc1)C(Cl)Cl` [Chloramphenicol], the MIC turned out to be 8 µg/mL in experiment [4] (ATCC29212, E. faecalis 0101 (ATCC 29212), FIC control) and 16 µg/mL in experiment [1] (setting [7]).

Broadly, the MIC50 is an inhibitory concentration at the 50% level, which refers to growth in some studies and to a panel of isolates in others. The MIC90 is an inhibitory concentration at the 90% level, which refers to growth in some studies and to a panel of isolates in others. Consider `CC(=O)NC[C@H]1CN(c2ccc(N3CCOCC3)c(F)c2)C(=O)O1` [Linezolid], for which the MIC in experiment [4] (E. faecalis 0795 (VSE)) came out at 2 µg/mL. In experiment [4] (E. faecalis 0796 (VSE)), the MIC came to 4 µg/mL. For the same compound, in experiment [4] (VRE, E. faecalis 0847 (VRE)), the MIC stood at 2 µg/mL. The MIC in experiment [4] (VRE, E. faecalis 0849 (VRE)) was determined as 2 µg/mL. The MIC in experiment [1] (MRSA, S. aureus 0765 (MRSA)) was 4 µg/mL. Also, in experiment [1] (MRSA, S. aureus 2053 (MRSA)), the MIC turned out to be 2 µg/mL. Moreover, in experiment [1] (MSSA, S. aureus 0753 (MSSA)), the MIC was 4 µg/mL. In addition, the MIC in experiment [1] (MSSA, S. aureus 2063 (MSSA)) is 4 µg/mL. The MIC in experiment [5] (S. pyogenes 0717) came to 1 µg/mL. Further, the MIC in experiment [5] (S. pyogenes 0722) stood at 1 µg/mL. In experiment [6], the “% of Isolates with MBC 0.5 μg/mL” value was determined as 1.5%, the “% of Isolates with MBC 1 μg/mL” value is 12%, the “% of Isolates with MBC 2 μg/mL” value turned out to be 13.5% and the “% of Isolates with MBC ≧4 μg/mL” value came out at 73%. In experiment [6], the “% of Isolates with MIC 0.25 μg/mL” value came to 9.5%, the “% of Isolates with MIC 0.5 μg/mL” value is recorded as 16%, the “% of Isolates with MIC 1 μg/mL” value was 15.5% and the “% of Isolates with MIC 2 μg/mL” value stood at 47.5%. In addition, in experiment [6], the “% of Isolates with MIC ≧4 μg/mL” value came to 11.5%, the “MBC range” value was 0.5 to 64 µg/mL and the “MIC range” value fell in the range of 0.25 to 4 µg/mL. Also, the MIC50 in experiment [6] (Staphylococcus aureus, MRSA, read-out: MIC50) was 2 µg/mL (≈ 5.93 µM). The MIC90 in experiment [6] (Staphylococcus aureus, read-out: MIC90) worked out at 4 µg/mL (≈ 11.9 µM).
